One assay concerns bacteria. Put plainly: Checkerboard titration, synergy cases with conventional antibiotics (all tested bacteria). Particulars: in vitro, human AMPs. The class given is cell-based. On the procedure: (§1) According to checkerboard titration template, one component (A) of the combination was diluted along the rows of the plate, while the other (B) was diluted down the columns, thereby creating the variety of mixtures with different concentrations of tested compounds. 2.5 μl of corresponding solutions of the components A and B were added into each well of the plate. Into the first column and the last row the same amount of 10 mM sodium phosphate buffer, pH 7.4, containing 0.1% of BSA was introduced instead of the second component. Thus, all wells contained 5 μl of antimicrobial compounds solutions (solo or in combination). The same volume of bacterial suspension, prepared as described for microdilution assay, was added into each well. The results were recorded after the overnight incubation, visually indicating the presence or absence of the microbial growth in the corresponding wells. Based on the obtained data the isobolograms of combined action were plotted and/or Fractional Inhibitory Concentration Indices (FICI) were calculated. […] Depending on the minimal value of the FICI the combined effect of the combination was classified as antagonism (FICI > 2), independent action (1 < FICI ≤ 2), additivity (0.5 < FICI ≤ 1) or synergy (FICI ≤ 0.5), as is recommended in the literature and due to some drawbacks of the serial dilution method (Hsieh et al., [1993]; Orhan et al., [2005]; Fehri et al., [2007]). FICIs were assessed in 3–6 independent experiments and median values were used to define the nature of interaction.

Assay [1] concerns A. baumannii (clin. isol.). The class given is cell-based, Acinetobacter baumannii. Particulars: AMP in combination with GEN (gentamicin). The method, then: According to checkerboard titration template, one component (A) of the combination was diluted along the rows of the plate, while the other (B) was diluted down the columns, thereby creating the variety of mixtures with different concentrations of tested compounds. 2.5 μl of corresponding solutions of the components A and B were added into each well of the plate. Into the first column and the last row the same amount of 10 mM sodium phosphate buffer, pH 7.4, containing 0.1% of BSA was introduced instead of the second component. Thus, all wells contained 5 μl of antimicrobial compounds solutions (solo or in combination). The same volume of bacterial suspension, prepared as described for microdilution assay, was added into each well. The results were recorded after the overnight incubation, visually indicating the presence or absence of the microbial growth in the corresponding wells. Based on the obtained data the isobolograms of combined action were plotted and/or Fractional Inhibitory Concentration Indices (FICI) were calculated. […] FICIs were assessed in 3–6 independent experiments and median values were used to define the nature of interaction.

Another assay deals with E. coli ML-35p. The class given is cell-based, Escherichia coli. On the procedure: as §1
A further assay has as its system MRSA ATCC 33591. The class given is cell-based, Staphylococcus aureus. The method, then: as §1
The next assay has as its system M. luteus CIP A270. The class given is cell-based, Micrococcus luteus. The method, then: as §1
Setting [2] is: AMP in combination with GEN (gentamicin).
Where [3] appears, read: AMP in combination with PMB (polymyxin B).
Setting [4] is: AMP in combination with RIF (rifampicin).
Where [5] appears, read: AMP in combination with OX (oxacillin).

Where two headings read alike, the source gives them in different places.

As for `CC[C@H](C)[C@H](NC(=O)[C@H](CCCCN)NC(=O)[C@H](CCC(=O)O)NC(=O)[C@H](CCCCN)NC(=O)[C@H](CO)NC(=O)[C@H](CCCCN)NC(=O)[C@H](CCCNC(=N)N)NC(=O)[C@H](Cc1ccccc1)NC(=O)[C@H](Cc1ccccc1)NC(=O)[C@H](CC(=O)O)NC(=O)CNC(=O)[C@H](CC(C)C)NC(=O)[C@@H](N)CC(C)C)C(=O)NCC(=O)N[C@@H](CCCCN)C(=O)N[C@@H](CCC(=O)O)C(=O)N[C@@H](Cc1ccccc1)C(=O)N[C@@H](CCCCN)C(=O)N[C@@H](CCCNC(=N)N)C(=O)N[C@H](C(=O)N[C@H](C(=O)N[C@@H](CCC(N)=O)C(=O)N[C@@H](CCCNC(=N)N)C(=O)N[C@H](C(=O)N[C@@H](CCCCN)C(=O)N[C@@H](CC(=O)O)C(=O)N[C@@H](Cc1ccccc1)C(=O)N[C@@H](CC(C)C)C(=O)N[C@@H](CCCNC(=N)N)C(=O)N[C@@H](CC(N)=O)C(=O)N[C@@H](CC(C)C)C(=O)N[C@H](C(=O)N1CCC[C@H]1C(=O)N[C@@H](CCCNC(=N)N)C(=O)N[C@H](C(=O)N[C@@H](CCC(=O)O)C(=O)N[C@@H](CO)C(=O)O)[C@@H](C)O)C(C)C)[C@@H](C)CC)C(C)C)[C@@H](C)CC` [LL-37], the “AMP concentration in synergy cases with conventional antibiotics” value with bacteria is listed as “around 150 nM”.

Turning to “Lysozyme: egg white lysozyme, antimicrobial protein, from BioChemica”, the “Minimal FICI” value in assay [1] was 0.75; with E. coli ML-35p (setting [2]) it was 0.53; with E. coli ML-35p (setting [3]) it was 0.25; with E. coli ML-35p (setting [4]), 0.62; in the assay on MRSA ATCC 33591 (setting [2]) it was 0.53; in the assay with MRSA ATCC 33591 (setting [5]), 0.53. Also, the “Minimal FICI” value is 0.56 in the assay on MRSA ATCC 33591 (setting [3]); 0.62 with MRSA ATCC 33591 (setting [4]); 0.62 in the assay with M. luteus CIP A270 (setting [2]); 0.62 with M. luteus CIP A270 (AMP in combination with OFL (ofloxacin)); 0.75 in the assay with M. luteus CIP A270 (setting [5]); 0.62 with M. luteus CIP A270 (setting [3]). Besides, the “Minimal FICI” value with M. luteus CIP A270 (setting [4]) was found to be 0.75.

Source of the values: publication PMC6503114, “Application of Antimicrobial Peptides of the Innate Immune System in Combination With Conventional Antibiotics—A Novel Way to Combat Antibiotic Resistance?” (Frontiers in Cellular and Infection Microbiology, 2019).
